Reference: the supplement of paper PMC10307832

Key:
Experiment in all cases: relative viability (nuclei count vs DMSO), 5 days (fraction); higher = more cells survive
Venetoclax = compound: CC1(C)CCC(CN2CCN(c3ccc(C(=O)NS(=O)(=O)c4ccc(NCC5CCOCC5)c([N+](=O)[O-])c4)c(Oc4cnc5[nH]ccc5c4)c3)CC2)=C(c2ccc(Cl)cc2)C1 [Venetoclax]
Outline: (§1)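 Five library-drug doses, separated by factors of √10, were pinned into 1536-well plates holding lung cancer cell lines after an overnight stay at 37 °C. Cells were fixed, permeabilised and Hoechst-stained in one step after 5 days without medium change, then imaged at 4×. Viability compares treated-well with vehicle-well nuclei, counted in MetaXpress, as a median across plates. Passing plates had control CV below 25% and at least one doubling.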

Selumetinib = compound: Cn1cnc2c(F)c(Nc3ccc(Br)cc3Cl)c(C(=O)NOCCO)cc21 [Selumetinib]
Outline: as §1

Venetoclax + Alpelisib = compound: CC1(C)CCC(CN2CCN(c3ccc(C(=O)NS(=O)(=O)c4ccc(NCC5CCOCC5)c([N+](=O)[O-])c4)c(Oc4cnc5[nH]ccc5c4)c3)CC2)=C(c2ccc(Cl)cc2)C1 [Venetoclax] + Cc1nc(NC(=O)N2CCC[C@H]2C(N)=O)sc1-c1ccnc(C(C)(C)C(F)(F)F)c1 [Alpelisib] (partner 2 µM)
Outline: (§2)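 After 5 days of treatment, lung cancer cells in 1536-well plates were fixed and stained in a single step (final 0.05% Triton X-100, 1% formaldehyde, 1 ug/ml Hoechst) and their nuclei counted on 4× images. Treatment had been applied by pin tool the day after seeding as one drug alone or as a fixed anchor-drug dose with five library-drug doses (not always all listed) in √10 steps. Relative viability is the nuclei count of treated wells divided by that of vehicle wells, and values are medians of duplicate plates.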

Selumetinib + Bortezomib = compound: Cn1cnc2c(F)c(Nc3ccc(Br)cc3Cl)c(C(=O)NOCCO)cc21 [Selumetinib] + CC(C)C[C@H](NC(=O)[C@H](Cc1ccccc1)NC(=O)c1cnccn1)B(O)O [Bortezomib] (partner 0.002 µM)
Outline: as §2

Cell Line | relative viability (Venetoclax; 0.01 µM) | relative viability (Venetoclax; 0.03162 µM) | relative viability (Venetoclax; 0.1 µM) | relative viability (Venetoclax; 0.3162 µM) | relative viability (Venetoclax; 1 µM) | relative viability (Selumetinib; 0.02 µM) | relative viability (Selumetinib; 0.06325 µM) | relative viability (Selumetinib; 0.2 µM) | relative viability (Selumetinib; 0.6325 µM) | relative viability (Venetoclax + Alpelisib; first compound 0.01 µM) | relative viability (Venetoclax + Alpelisib; first compound 0.03162 µM) | relative viability (Venetoclax + Alpelisib; first compound 0.1 µM) | relative viability (Venetoclax + Alpelisib; first compound 0.3162 µM) | relative viability (Venetoclax + Alpelisib; first compound 1 µM) | relative viability (Selumetinib + Bortezomib; first compound 0.02 µM) | relative viability (Selumetinib + Bortezomib; first compound 0.06325 µM) | relative viability (Selumetinib + Bortezomib; first compound 0.2 µM) | relative viability (Selumetinib + Bortezomib; first compound 0.6325 µM)
NCI-H661 | 0.964 | 1.07 | 0.949 | 0.995 | 0.966 | 1.01 | 0.954 | 0.979 | 1 | 0.597 | 1.11 | 0.878 | 0.569 | 0.48 | 0.751 | 0.847 | 0.722 | 0.575
NCI-H1975 | 0.99 | 0.935 | 0.889 | 0.939 | 0.884 | 0.952 | 0.958 | 0.939 | 0.663 | 0.673 | 0.703 | 0.609 | 0.628 | 0.543 | 0.324 | 0.282 | 0.262 | 0.221
NCI-H1437 | 0.971 | 1.04 | 0.989 | 0.957 | 0.949 | 0.911 | 0.817 | 0.703 | 0.53 | 0.985 | 0.989 | 1.05 | 0.938 | 0.926 | 0.486 | 0.378 | 0.316 | 0.276
NCI-H1666 | 0.915 | 1.02 | 0.966 | 0.933 | 1.01 | 0.917 | 0.94 | 0.878 | 0.875 | 0.8 | 0.89 | 1.13 | 0.971 | 1.04 | 0.595 | 0.586 | 0.63 | 0.495
NCI-H2085 | 0.873 | 1.08 | 1.03 | 0.969 | 0.928 | 0.863 | 0.844 | 0.881 | 0.788 | 0.911 | 0.925 | 0.884 | 0.928 | 0.911 | 1 | 0.947 | 0.926 | 0.916
LXF-289 | 1.17 | 1.02 | 0.944 | 0.956 | 0.883 | 0.948 | 0.932 | 0.835 | 0.778 | 1.05 | 1 | 1.04 | 1.04 | 0.934 | 0.934 | 0.891 | 0.8 | 0.748
NCI-H322M | 1.05 | 0.982 | 0.899 | 1.06 | 0.938 | 0.83 | 0.681 | 0.651 | 0.624 | 0.918 | 0.881 | 0.836 | 0.764 | 0.752 | 1.05 | 1.22 | 1.01 | 0.98
LU99A | 1.02 | 1.01 | 0.84 | 0.987 | 0.994 | 1.01 | 1.05 | 0.91 | 0.912 | 0.432 | 0.545 | 0.548 | 0.522 | 0.505 | 1.35 | 1.05 | 1.18 | 1.37
NCI-H650 | 0.934 | 1.05 | 0.876 | 1.1 | 0.855 | 1.1 | 1.09 | 1.39 | 1.26 | 1.07 | 0.989 |  | 1.13 | 1.01 | 1.01 | 0.995 | 1.25 | 1.17
PC-14 | 1 | 1.08 | 1.03 | 0.989 | 0.818 | 0.931 | 0.932 | 0.935 | 0.844 | 0.882 | 0.931 | 1.05 | 0.952 | 0.776 | 0.889 | 0.815 | 0.926 | 0.766
HARA | 0.903 | 1.08 | 0.926 | 1.06 | 0.993 | 0.903 | 0.819 | 0.824 | 0.718 | 0.728 | 0.822 | 0.787 | 0.891 | 0.787 | 1.03 | 1.07 | 1.01 | 0.861
NCI-H1299 | 1.02 | 1.03 | 1.01 | 1.01 | 0.949 | 1.04 | 1.03 | 1.02 | 0.889 | 1.02 | 1.03 | 1.06 | 1.04 | 1.03 | 1.08 | 1.09 | 1.07 | 0.977
HOP-62 | 1 | 1.05 | 0.989 | 0.973 | 0.927 | 1.02 | 0.897 | 0.886 | 0.549 | 0.924 | 1.21 | 1.08 | 1.07 | 0.9 | 1.06 | 0.779 | 0.496 | 0.475
HCC-44 | 0.935 | 0.955 | 0.983 | 0.974 | 0.929 | 1 | 1.01 | 1.04 | 1.1 | 0.795 | 0.745 | 0.64 | 0.754 | 0.705 | 0.993 | 0.882 | 0.945 | 0.971
BEN | 1.03 | 1.09 | 0.887 | 0.999 | 0.941 | 0.934 | 1.02 | 0.863 | 0.938 | 0.976 | 1.07 | 0.756 | 1.06 | 1.01 | 0.779 | 0.854 | 0.686 | 0.834
NCI-H2405 | 1.03 | 1.14 | 0.978 | 0.996 | 0.914 | 1.02 | 0.923 | 0.861 | 0.686 | 0.833 | 0.751 |  | 0.82 | 0.705 | 0.971 | 0.928 | 0.858 | 0.744
201T | 0.975 | 0.989 | 0.982 | 0.984 | 0.982 | 0.94 | 0.901 | 0.91 | 0.888 | 0.96 | 1.01 | 1.07 | 0.972 | 1.03 | 1.11 | 1 | 1.01 | 0.994
NCI-H596 | 1.01 | 0.972 | 0.941 | 0.925 | 0.888 | 0.9 | 0.881 | 0.889 | 0.729 | 0.516 | 0.487 | 0.502 | 0.544 | 0.397 | 0.92 | 0.93 | 0.835 | 0.621
NCI-H838 | 0.965 | 1.05 | 0.948 | 0.957 | 0.906 | 0.853 | 0.863 | 0.854 | 0.743 | 1.11 | 0.953 | 1.04 | 1.04 | 0.955 | 0.695 | 0.59 | 0.679 | 0.513
HCC-366 | 0.995 | 1.03 | 0.986 | 1.02 | 0.939 | 0.967 | 0.992 | 0.842 | 0.851 | 0.5 | 0.425 | 0.448 | 0.501 | 0.317 | 1.07 | 0.935 | 0.864 | 0.761
NCI-H1651 | 1.05 | 1.02 | 0.971 | 0.926 | 0.904 | 1.03 | 0.913 | 0.93 | 0.963 | 0.973 | 0.949 | 0.959 | 0.987 | 0.905 | 1.08 | 0.861 | 0.873 | 0.818
ABC-1 | 1.11 | 0.981 | 0.974 | 0.938 | 0.897 | 0.885 | 0.757 | 0.875 | 0.841 | 0.933 | 0.996 | 0.853 | 0.967 | 1.01 | 0.279 | 0.258 | 0.275 | 0.291
LOU-NH91 | 0.969 | 1.09 | 0.942 | 0.954 | 0.925 | 0.935 | 0.884 | 0.899 | 0.901 | 0.653 | 0.802 | 0.689 | 0.791 | 0.759 | 0.465 | 0.479 | 0.476 | 0.479
NCI-H520 | 0.923 | 0.994 | 0.828 | 0.971 | 1 | 1.12 | 0.981 | 1.08 | 1.04 | 0.893 | 1.09 | 0.865 | 0.796 | 0.847 | 0.635 | 0.47 | 0.498 | 0.575
H3255 | 1 | 1.04 | 0.98 | 1.01 | 0.933 | 0.983 | 0.914 | 0.944 | 0.93 | 0.702 | 0.671 | 0.686 | 0.891 | 0.686 | 0.82 | 0.801 | 0.761 | 0.962
